Like-named read-outs stand apart in the source and are kept apart here.
Assays:
AMPK(A2/B2/G1) [1] = target: T1, AMPK(A2/B2/G1) (Homo sapiens, UniProt O43741+P54619+P54646); experiment: Kinase panel assay (radiolabelled); type: biochemical; settings: 30 μM compound, ATP 10 μM; duplicates Data 1/Data 2; read-out: % Enzyme Activity (relative to DMSO controls)
T1 construct: purchased Reaction Biology Corp

AMPK(A2/B2/G1) [2] = target: T2, AMPK(A2/B2/G1) (Homo sapiens, UniProt P54646); experiment: Kinase panel assay (radiolabelled); type: biochemical; settings: 30 μM compound, ATP 10 μM; duplicates Data 1/Data 2
T2 construct: purchased Reaction Biology Corp

CDK2/cyclin O = target: T3, CDK2/cyclin O (Homo sapiens, UniProt P24941); experiment: Kinase panel assay (radiolabelled); type: biochemical; settings: ATP 10 μM
T3 construct: purchased Reaction Biology Corp

CDK3/cyclin E = target: T4, CDK3/cyclin E (Homo sapiens, UniProt Q00526); experiment: Kinase panel assay (radiolabelled); type: biochemical; settings: ATP 10 μM
T4 construct: purchased Reaction Biology Corp

mTOR/FRAP1 = target: T5, mTOR/FRAP1 (Homo sapiens, UniProt P42345); experiment: Kinase panel assay (radiolabelled); type: biochemical; settings: 30 μM compound, ATP 10 μM, duplicates Data 1/Data 2
T5 construct: purchased Reaction Biology Corp

TLK1 = target: T6, TLK1 (Homo sapiens, UniProt Q9UKI8); experiment: Kinase panel assay (radiolabelled); type: biochemical; settings: ATP 10 μM
T6 construct: purchased Reaction Biology Corp
T6 sequence (Q9UKI8 1-766): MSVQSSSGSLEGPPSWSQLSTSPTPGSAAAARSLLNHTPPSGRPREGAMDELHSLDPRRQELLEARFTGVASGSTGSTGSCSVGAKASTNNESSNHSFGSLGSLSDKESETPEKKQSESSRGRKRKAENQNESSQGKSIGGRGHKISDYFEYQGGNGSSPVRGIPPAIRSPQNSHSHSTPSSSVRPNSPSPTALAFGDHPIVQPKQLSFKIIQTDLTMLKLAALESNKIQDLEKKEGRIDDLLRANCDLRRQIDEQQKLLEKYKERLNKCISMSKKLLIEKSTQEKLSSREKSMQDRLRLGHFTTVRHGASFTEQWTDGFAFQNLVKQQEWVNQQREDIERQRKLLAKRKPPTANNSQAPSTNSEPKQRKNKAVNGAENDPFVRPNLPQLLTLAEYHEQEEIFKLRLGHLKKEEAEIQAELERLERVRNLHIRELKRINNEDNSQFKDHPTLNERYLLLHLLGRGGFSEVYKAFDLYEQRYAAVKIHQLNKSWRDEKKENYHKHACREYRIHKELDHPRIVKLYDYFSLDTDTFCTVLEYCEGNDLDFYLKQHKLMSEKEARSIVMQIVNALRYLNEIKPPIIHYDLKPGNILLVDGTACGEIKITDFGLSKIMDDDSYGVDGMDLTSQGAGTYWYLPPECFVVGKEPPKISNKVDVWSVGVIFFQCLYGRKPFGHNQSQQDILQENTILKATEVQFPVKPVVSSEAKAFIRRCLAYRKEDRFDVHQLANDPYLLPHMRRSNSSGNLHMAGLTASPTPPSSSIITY

TRKA (G595R) = target: T7, TRKA (G595R) (Homo sapiens, UniProt P04629, G595R); experiment: Kinase panel assay (radiolabelled); type: biochemical; settings: 30 μM compound, ATP 10 μM, duplicates Data 1/Data 2
T7 construct: purchased Reaction Biology Corp

COX-2 = experiment: Western blot of COX-2 in LPS-induced BV-2 cells; type: cell-based, murine; settings: 0.01 to 1 uM
Experimental: Western blot analysis was performed to see the protein expression of the iNOS and COX-2 in the BV2 cells. BV2 cells were seeded in a 6 well plate at the density of 6 × 10^5 cells/well overnight and cells were treated as mentioned earlier in the cell treatment section and this time treatment was performed for 6 h only. After 6 h, cells were harvested and lysed with lysis buffer containing (RIPA, protease inhibitor & phosphatase inhibitor), protein estimation was performed using biorad assay and the 30 µg of total protein was separated by 8% SDS-PAGE gel electrophoresis, transferred to nitrocellulose membranes, and incubated with primary antibodies against tubulin, iNOS, COX-2, and α-tubulin. […] membranes were incubated with horseradish peroxidase-conjugated secondary antibodies, and protein bands were visualized using ECL Western Blotting Detection Reagents (Amersham Pharmacia Biotech). Quantitative analysis of the protein bands was quantified using Image Master 2D Elite software (version 3.1, Amersham Pharmacia Biotech).

PGE2 = experiment: Secreted PGE2 immunoassay in LPS-induced BV-2 cells; type: cell-based, murine
Experimental: To evaluate the secreted level of Prostaglandin E2 (PGE2), Tumor necrosis factor (TNF-α), Interleukin (IL-6), Interleukin (IL-1β), BV2 cells were seeded in a 6 well plate at the density of 1.5 × 10^6 cells/well in DMEM and incubated for 24 h. Seeded cells sere pretreated and, activated with LPS for next 24 h. conditioned medium from treated cells were collected and stored at -80 degree for longer period of time. The amount of TNF-α, IL-1β, PGE2,and IL-6 were evaluated using the competitive enzyme immunoassay kit. PGE2 kit were obtained from (Cayman Chemical, Ann Arbor, MI, USA) and TNF-α, IL-1β, and IL-6 were measured using ELISA development kits (R&D Systems, Minneapolis, MN, USA). All the protocol was exactly followed as written in the manual.

DAPK1 = target: T8, DAPK1 (Homo sapiens, UniProt P53355); settings: cited from earlier work
T8 construct: purchased Reaction Biology Corp

ROCK1 = target: T9, ROCK1 (Homo sapiens, UniProt Q13464); settings: cited from earlier work
T9 construct: purchased Reaction Biology Corp

[3] = 30 μM compound, duplicates Data 1/Data 2
[4] = 30 μM compound, duplicates Data 1/Data 2, read-out: % Enzyme Activity (relative to DMSO controls)
[5] = 30 μM, average ± SD, read-out: % Residual Activity at 30 μM
[6] = read-out: % Enzyme Activity (relative to DMSO controls)

T4 sequence (Q00526 whole entry): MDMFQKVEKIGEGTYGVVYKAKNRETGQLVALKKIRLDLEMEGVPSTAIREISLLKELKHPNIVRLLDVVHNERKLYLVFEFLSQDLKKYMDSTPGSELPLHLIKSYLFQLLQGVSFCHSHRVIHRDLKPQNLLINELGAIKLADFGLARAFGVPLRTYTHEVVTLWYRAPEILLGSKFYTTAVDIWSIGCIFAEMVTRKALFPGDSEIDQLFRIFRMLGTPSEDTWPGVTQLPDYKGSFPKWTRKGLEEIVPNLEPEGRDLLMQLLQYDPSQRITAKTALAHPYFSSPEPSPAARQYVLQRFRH
T4 sequence (P24864 whole entry partner): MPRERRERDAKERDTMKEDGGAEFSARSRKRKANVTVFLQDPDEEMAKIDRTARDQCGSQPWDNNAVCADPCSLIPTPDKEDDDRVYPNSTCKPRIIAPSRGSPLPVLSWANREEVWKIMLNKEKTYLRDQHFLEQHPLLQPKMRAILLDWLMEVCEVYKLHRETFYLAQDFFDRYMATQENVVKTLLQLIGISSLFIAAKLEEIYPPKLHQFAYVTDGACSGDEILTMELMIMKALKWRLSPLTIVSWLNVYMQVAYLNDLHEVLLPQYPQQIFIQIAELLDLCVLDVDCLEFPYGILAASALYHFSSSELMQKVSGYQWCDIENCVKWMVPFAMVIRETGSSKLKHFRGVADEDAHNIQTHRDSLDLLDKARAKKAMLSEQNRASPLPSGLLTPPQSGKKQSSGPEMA
T7 sequence (P04629 33-796 G595R): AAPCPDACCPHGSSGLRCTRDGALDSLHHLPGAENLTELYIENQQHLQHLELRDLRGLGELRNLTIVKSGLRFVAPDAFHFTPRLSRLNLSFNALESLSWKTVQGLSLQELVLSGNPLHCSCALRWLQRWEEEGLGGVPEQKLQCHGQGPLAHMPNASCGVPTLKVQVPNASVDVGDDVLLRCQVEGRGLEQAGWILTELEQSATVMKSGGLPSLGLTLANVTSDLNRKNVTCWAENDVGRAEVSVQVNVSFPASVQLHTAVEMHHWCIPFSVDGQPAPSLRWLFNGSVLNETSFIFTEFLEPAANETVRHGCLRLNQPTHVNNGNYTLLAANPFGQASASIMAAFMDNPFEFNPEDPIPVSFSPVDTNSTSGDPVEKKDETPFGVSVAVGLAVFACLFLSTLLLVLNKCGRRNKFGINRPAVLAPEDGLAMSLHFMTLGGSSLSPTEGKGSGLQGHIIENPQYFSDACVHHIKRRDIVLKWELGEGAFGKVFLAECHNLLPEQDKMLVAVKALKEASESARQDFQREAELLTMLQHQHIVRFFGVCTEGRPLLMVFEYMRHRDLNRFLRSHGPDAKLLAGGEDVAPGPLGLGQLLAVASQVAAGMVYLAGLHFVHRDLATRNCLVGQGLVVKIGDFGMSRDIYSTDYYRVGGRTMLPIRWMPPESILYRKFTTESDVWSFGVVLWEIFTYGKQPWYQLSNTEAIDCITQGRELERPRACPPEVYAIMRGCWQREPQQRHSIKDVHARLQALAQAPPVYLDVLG
T9 sequence (Q13464 whole entry): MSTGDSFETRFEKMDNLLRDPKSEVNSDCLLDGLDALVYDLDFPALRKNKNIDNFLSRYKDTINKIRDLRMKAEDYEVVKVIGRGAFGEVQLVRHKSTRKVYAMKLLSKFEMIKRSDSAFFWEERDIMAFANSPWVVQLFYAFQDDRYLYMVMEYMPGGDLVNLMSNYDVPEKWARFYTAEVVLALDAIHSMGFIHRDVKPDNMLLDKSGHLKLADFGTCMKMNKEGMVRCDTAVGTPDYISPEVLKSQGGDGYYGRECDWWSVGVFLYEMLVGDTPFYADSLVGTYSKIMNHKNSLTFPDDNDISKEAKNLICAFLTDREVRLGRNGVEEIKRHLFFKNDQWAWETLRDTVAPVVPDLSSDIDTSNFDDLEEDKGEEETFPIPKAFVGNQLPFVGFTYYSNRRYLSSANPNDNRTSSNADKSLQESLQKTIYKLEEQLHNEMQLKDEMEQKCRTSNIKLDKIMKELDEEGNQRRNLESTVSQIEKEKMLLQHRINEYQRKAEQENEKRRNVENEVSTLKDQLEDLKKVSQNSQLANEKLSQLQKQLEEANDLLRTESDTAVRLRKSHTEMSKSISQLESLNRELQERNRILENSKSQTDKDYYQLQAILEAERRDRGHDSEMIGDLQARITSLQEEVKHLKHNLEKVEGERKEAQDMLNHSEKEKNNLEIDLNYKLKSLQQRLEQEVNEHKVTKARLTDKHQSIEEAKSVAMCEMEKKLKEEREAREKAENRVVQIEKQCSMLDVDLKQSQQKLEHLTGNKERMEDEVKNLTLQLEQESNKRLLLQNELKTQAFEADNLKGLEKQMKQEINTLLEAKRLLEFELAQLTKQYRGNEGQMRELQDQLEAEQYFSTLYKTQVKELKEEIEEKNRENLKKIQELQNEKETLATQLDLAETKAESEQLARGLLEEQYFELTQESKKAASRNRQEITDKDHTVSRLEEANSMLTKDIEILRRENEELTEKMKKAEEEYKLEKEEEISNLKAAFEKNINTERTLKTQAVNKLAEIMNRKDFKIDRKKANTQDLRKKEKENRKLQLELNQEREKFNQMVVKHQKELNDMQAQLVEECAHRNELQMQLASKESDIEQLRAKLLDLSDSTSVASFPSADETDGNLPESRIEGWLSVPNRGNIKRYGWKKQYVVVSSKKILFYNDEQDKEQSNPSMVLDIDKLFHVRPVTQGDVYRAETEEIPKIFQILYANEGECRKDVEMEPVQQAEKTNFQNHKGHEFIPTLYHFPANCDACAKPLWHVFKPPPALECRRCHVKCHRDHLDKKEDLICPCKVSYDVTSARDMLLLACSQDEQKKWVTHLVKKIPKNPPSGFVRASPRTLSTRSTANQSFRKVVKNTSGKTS
T1 sequence (P54646 whole entry): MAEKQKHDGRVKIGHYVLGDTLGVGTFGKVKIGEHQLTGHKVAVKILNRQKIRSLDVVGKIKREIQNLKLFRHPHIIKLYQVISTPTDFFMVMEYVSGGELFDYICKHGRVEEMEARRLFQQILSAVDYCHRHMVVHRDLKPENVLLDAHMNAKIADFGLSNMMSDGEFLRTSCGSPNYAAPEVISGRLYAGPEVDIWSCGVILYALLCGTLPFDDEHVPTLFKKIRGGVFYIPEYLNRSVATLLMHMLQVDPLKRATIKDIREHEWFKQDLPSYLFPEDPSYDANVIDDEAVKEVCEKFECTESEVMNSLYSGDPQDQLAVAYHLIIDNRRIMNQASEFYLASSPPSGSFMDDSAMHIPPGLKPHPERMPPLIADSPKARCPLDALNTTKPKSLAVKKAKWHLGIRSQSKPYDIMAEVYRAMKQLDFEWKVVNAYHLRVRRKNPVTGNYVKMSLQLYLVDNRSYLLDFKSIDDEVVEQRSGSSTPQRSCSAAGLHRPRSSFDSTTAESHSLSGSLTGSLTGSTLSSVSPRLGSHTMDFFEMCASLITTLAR
T1 sequence (O43741 whole entry partner): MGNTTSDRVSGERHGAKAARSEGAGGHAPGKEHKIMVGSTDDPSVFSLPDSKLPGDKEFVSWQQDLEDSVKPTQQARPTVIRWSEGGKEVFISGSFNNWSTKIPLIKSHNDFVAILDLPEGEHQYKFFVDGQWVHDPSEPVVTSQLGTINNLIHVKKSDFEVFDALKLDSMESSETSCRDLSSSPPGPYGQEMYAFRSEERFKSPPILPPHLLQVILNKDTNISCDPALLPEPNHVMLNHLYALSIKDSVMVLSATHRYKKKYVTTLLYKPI
T1 sequence (P54619 whole entry partner): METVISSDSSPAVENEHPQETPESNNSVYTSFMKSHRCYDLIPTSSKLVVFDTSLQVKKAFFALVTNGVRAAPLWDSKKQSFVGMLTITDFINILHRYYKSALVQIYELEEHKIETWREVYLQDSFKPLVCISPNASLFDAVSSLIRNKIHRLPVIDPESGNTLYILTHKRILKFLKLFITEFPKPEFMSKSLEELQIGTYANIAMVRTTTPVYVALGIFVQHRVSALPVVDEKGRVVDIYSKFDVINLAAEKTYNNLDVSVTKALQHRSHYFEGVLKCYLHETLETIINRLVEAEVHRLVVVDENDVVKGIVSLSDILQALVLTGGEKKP
T2 sequence (P54646 whole entry): as the sequence (P54646 whole entry) above
T2 sequence (O43741 whole entry partner): as the sequence (O43741 whole entry partner) above
T2 sequence (P54619 whole entry partner): as the sequence (P54619 whole entry partner) above

Structure (SMILES): O=C1C=CC2(C=C1)OCC(Cc1cn(-c3cccc(Cl)c3)nn1)C(=O)N2c1ccccc1 (stereo not shown) [2d, 3-((1-(3-Chlorophenyl)-1H-1,2,3-triazol-4-yl)methyl)-5-phenyl-1-oxa-5-azaspiro[5.5]undeca-7,10-diene-4,9-dione]
- remaining activity at 30 µM (AMPK(A2/B2/G1) [1]): 94%
- % Enzyme Activity (relative to DMSO controls) (AMPK(A2/B2/G1) [2]): 89.86%
- % Enzyme Activity (relative to DMSO controls) (CDK2/cyclin O; [3]): 54.15%
- remaining activity at 30 µM (CDK2/cyclin O; [4]): 54.4%
- remaining activity at 30 µM (CDK2/cyclin O; [5]): 54.3 ± 0.1%
- % Enzyme Activity (relative to DMSO controls) (CDK3/cyclin E; [3]): 59.02%
- remaining activity at 30 µM (CDK3/cyclin E; [4]): 61.6%
- remaining activity at 30 µM (CDK3/cyclin E; [5]): 60.3 ± 1.9%
- % Enzyme Activity (relative to DMSO controls) (mTOR/FRAP1): 96.09%
- remaining activity at 30 µM (mTOR/FRAP1; [6]): 103%
- % Enzyme Activity (relative to DMSO controls) (TLK1; [3]): 81.34%
- remaining activity at 30 µM (TLK1; [4]): 82.1%
- remaining activity at 30 µM (TLK1; [5]): 81.7 ± 0.5%
- % Enzyme Activity (relative to DMSO controls) (TRKA (G595R)): 99.08%
- remaining activity at 30 µM (TRKA (G595R); [6]): 103%
- COX-2 expression level (COX-2): the regulation of COX-2 showed concentration dependency
- secreted level of PGE2 (PGE2): concentration-dependent manner

Structure (SMILES): O=C1C=CC2(C=C1)OCC(Cc1cc(C(F)(F)F)cc(C(F)(F)F)c1)C(=O)N2c1ccccc1 (racemic) [1c]
- % Residual Activity at 30 μM (DAPK1): 45.4 ± 0.1%
- % Residual Activity at 30 μM (ROCK1): 97 ± 2.9%
